The text below walks through data of ChEMBL document CHEMBL1201862, “PubChem BioAssay data set” (2004).

Experiment in all cases: NCI tumour cell line growth inhibition, 48 h
Experiment [1] relates to ACHN.
The subject of experiment [2] is M14.
For experiment [3], the system named is T47D.
In experiment [4] the test system is HL-60.
Experiment [5] relates to COLO 205.
The test system of experiment [6] is KM12.
The test system of experiment [7] is 786-0.
Experiment [8] relates to CAKI-1.
Experiment [9] deals with NCI-H23.
The test system of experiment [10] is HCT-116.
In experiment [11] the test system is SK-MEL-2.
Experiment [12] relates to SF-295.
Experiment [13] relates to NCI-H522.
The subject of experiment [14] is HOP-92.
In experiment [15] the test system is SK-OV-3.
The subject of experiment [16] is MCF7.
Experiment [17] deals with RPMI-8226.
The subject of experiment [18] is MOLT-4.
The subject of experiment [19] is Hs-578T.
In experiment [20] the test system is SF-539.

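Five concentrations, 48 hours, 96-well plates. At the GI50, growth is halved.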 Activity calls are given as the source filed them. Rule as the data show it: active = GI50 up to about 1.1 µM and inactive = higher.

As for `C[N+](CCCl)(CCCl)Cc1cccc2cccc([N+](=O)[O-])c12`, the GI50 in experiment [1] was 44.5 µM (inactive); in experiment [2] it was > 100 µM (inactive); in [3] it was 42.7 µM (inactive); in experiment [4], 45.1 µM (inactive); in experiment [5] it was 25.8 µM (inactive); in [6] it was > 100 µM (inactive). Also, the GI50 is > 100 µM (inactive) in experiment [7]; 31 µM (inactive) in [8]; 30 µM (inactive) in experiment [9]; > 100 µM (inactive) in experiment [10]; > 100 µM (inactive) in experiment [11]; > 100 µM (inactive) in [12]. For the same molecule, the GI50 in [13] is 73.1 µM (inactive); in [14], > 100 µM (inactive); in experiment [15], > 100 µM (inactive); in experiment [16], 38.2 µM (inactive); in experiment [17], 40.5 µM (inactive); in experiment [18], 60.5 µM (inactive). Also, the figures for the GI50 in experiment [19] and in experiment [20] were > 100 µM (inactive) and 94.8 µM (inactive), respectively.
As for `CCOC(=O)C(NC(=O)c1ccccc1)(N1CCOCC1)C(F)(F)F` (stereo not given), the GI50 in experiment [1], in experiment [2], in experiment [3], in [4], in [5] and in experiment [6] was > 100 µM (inactive) throughout. For the same molecule, the GI50 in [7], in experiment [8], in experiment [9], in [10], in [11] and in [12] was > 100 µM (inactive) each time. Moreover, the GI50 in experiment [13], in experiment [14], in [15], in experiment [16], in experiment [17] and in experiment [18] was > 100 µM (inactive) each time. Further, the GI50 in experiment [19] and in [20] was > 100 µM (inactive) each time.
Take `COc1ccc(OC)c([N+](=O)[O-])c1-c1nc2sccn2c1/C=N/N=C(N)N`: the GI50 was > 100 µM (inactive) in experiment [1]; > 100 µM (inactive) in experiment [2]; 66.1 µM (inactive) in experiment [3]; 79.6 µM (inactive) in [4]; 29 µM (inactive) in [5]; 27.6 µM (inactive) in experiment [6]. Further, the GI50 was > 100 µM (inactive) in experiment [7]; > 100 µM (inactive) in experiment [8]; > 100 µM (inactive) in experiment [9]; 48.4 µM (inactive) in [10]; 33.3 µM (inactive) in experiment [11]; > 100 µM (inactive) in [12]. For the same molecule, the GI50 was 58.2 µM (inactive) in experiment [13]; 23 µM (inactive) in [14]; 61.7 µM (inactive) in experiment [15]; 21.5 µM (inactive) in [16]; 33.5 µM (inactive) in experiment [17]; 26.9 µM (inactive) in [18]. Further, the GI50 in experiment [19] was 26.7 µM (inactive); in [20] it was > 100 µM (inactive).
With `C=C1C(=O)OC2CC1C(OC(=O)/C=C/c1ccccc1)C/C(C)=C/CC/C(C)=C/CCC2(C)O` (stereo not given), the GI50 in [1] is 1.61 µM (inactive); in experiment [2], 1.64 µM (inactive); in [3], 3.47 µM (inactive); in experiment [4], 0.308 µM (active); in experiment [5] it was 3.41 µM (inactive); in experiment [6], 1.71 µM (inactive). For the same molecule, the GI50 was 1.31 µM (inactive) in [7]; 1.46 µM (inactive) in experiment [8]; 2.29 µM (inactive) in experiment [9]; 1.24 µM (inactive) in experiment [10]; 1.48 µM (inactive) in experiment [11]; 1.56 µM (inactive) in experiment [12]. Moreover, the GI50 in experiment [13] was 0.692 µM (active); in [14], 1.52 µM (inactive); in [15] it was 2.19 µM (inactive); in [16], 0.714 µM (active); in [17], 0.433 µM (active); in experiment [18], 0.409 µM (active). Further, the GI50 was 2.19 µM (inactive) in [19] and 1.46 µM (inactive) in [20].
For the molecule `NCCCN(CCCCN(CCCN)CCCc1ccccc1)CCCc1ccccc1`, the GI50 was 2.68 µM (inactive) in experiment [1]; 1.76 µM (inactive) in experiment [2]; 6.84 µM (inactive) in experiment [3]; 1.15 µM (inactive) in experiment [4]; 1.56 µM (inactive) in experiment [5]; 2.55 µM (inactive) in [6]. The GI50 in [7] is 1.7 µM (inactive); in experiment [8] it was 2.15 µM (inactive); in experiment [9] it was 4.32 µM (inactive); in experiment [10] it was 1.82 µM (inactive); in experiment [11] it was 1.69 µM (inactive); in experiment [12] it was 1.69 µM (inactive). For the same molecule, the GI50 was 2.09 µM (inactive) in [13]; 6.97 µM (inactive) in [14]; 4.16 µM (inactive) in [15]; 1.96 µM (inactive) in experiment [16]; 2.43 µM (inactive) in experiment [17]; 2 µM (inactive) in experiment [18]. For the same molecule, the GI50 in experiment [19] is 1.81 µM (inactive); in experiment [20] it was 1.86 µM (inactive).
Turning to `O=c1[nH]c(=S)[nH]cc1CN1CCOCC1`, the GI50 in experiment [1], in experiment [2], in [3], in experiment [4], in experiment [5] and in [6] was > 100 µM (inactive) throughout. Also, the GI50 in [7], in experiment [8], in experiment [9], in experiment [10], in experiment [11] and in [12] was > 100 µM (inactive) each time. Besides, the GI50 in [13], in experiment [14], in experiment [15], in experiment [16], in [17] and in experiment [18] was > 100 µM (inactive) each time. Further, the GI50 in [19] and in experiment [20] was > 100 µM (inactive) throughout.
`COC(=O)C1C(=O)C(C(=O)OC)C2CCC1N2C` (stereo not given): the GI50 in experiment [1] is 41 µM (inactive); in [2], 29.8 µM (inactive); in experiment [3], 30.7 µM (inactive); in [4], 19.9 µM (inactive); in experiment [5], > 100 µM (inactive); in [6] it was > 100 µM (inactive). Also, the GI50 is 33.7 µM (inactive) in [7]; 92.5 µM (inactive) in experiment [8]; 0.571 µM (active) in [9]; 21.5 µM (inactive) in experiment [10]; 20 µM (inactive) in [11]; > 100 µM (inactive) in experiment [12]. In addition, the GI50 in experiment [13] was > 100 µM (inactive); in [14], 16 µM (inactive); in [15], 28.4 µM (inactive); in experiment [16] it was 33.6 µM (inactive); in [17] it was 35 µM (inactive); in experiment [18], 9.08 µM (inactive). Also, the values for the GI50 in [19] and in [20] were 52.2 µM (inactive) and 33.5 µM (inactive), respectively.
`O=C(N/N=C/c1ccc([N+](=O)[O-])cc1)c1cccc2nc3ccccc3nc12`: the GI50 in [1] is > 38.5 µM (inactive); in experiment [2], > 100 µM (inactive); in experiment [3], > 100 µM (inactive); in [4], > 100 µM (inactive); in [5] it was 2.65 µM (inactive); in experiment [6] it was > 100 µM (inactive). Besides, the GI50 was > 100 µM (inactive) in experiment [7]; > 100 µM (inactive) in experiment [8]; 12.2 µM (inactive) in experiment [9]; > 100 µM (inactive) in experiment [10]; > 100 µM (inactive) in [11]; 78.2 µM (inactive) in experiment [12]. For the same molecule, the GI50 in experiment [13] is > 100 µM (inactive); in experiment [14], > 51.9 µM (inactive); in experiment [15], > 56.9 µM (inactive); in [16] it was > 100 µM (inactive); in experiment [17], > 100 µM (inactive); in experiment [18], > 36.8 µM (inactive). In addition, the GI50 was 9.75 µM (inactive) in experiment [19] and > 38.5 µM (inactive) in [20].
With `CC1(C)OC[C@@H](C[C@H](O)COCc2ccccc2)O1`, the GI50 in experiment [1], in experiment [2], in experiment [3], in [4], in [5] and in experiment [6] was > 100 µM (inactive) in each case. The GI50 in experiment [7], in experiment [8], in experiment [9], in experiment [10], in [11] and in experiment [12] was > 100 µM (inactive) in each case. Further, the GI50 in experiment [13], in experiment [14], in [15], in experiment [16], in experiment [17] and in [18] was > 100 µM (inactive) in each case. The GI50 in experiment [19] and in experiment [20] was > 100 µM (inactive) in each case.
With `CN(C)c1ccc(/C=C2\N=C(NN)NC2=O)cc1`, the GI50 in [1] was > 100 µM (inactive); in experiment [2], > 100 µM (inactive); in experiment [3], 44.4 µM (inactive); in experiment [4], 26.7 µM (inactive); in experiment [5] it was > 100 µM (inactive); in experiment [6], 41.1 µM (inactive). In addition, the GI50 in experiment [7] is 75.2 µM (inactive); in experiment [8], > 100 µM (inactive); in [9], > 100 µM (inactive); in experiment [10], 49.8 µM (inactive); in experiment [11], > 100 µM (inactive); in experiment [12], > 100 µM (inactive). Besides, the GI50 was 46.1 µM (inactive) in experiment [13]; 59.8 µM (inactive) in experiment [14]; > 100 µM (inactive) in experiment [15]; 54.8 µM (inactive) in experiment [16]; 49.3 µM (inactive) in experiment [17]; 8.85 µM (inactive) in [18]. The results for the GI50 in experiment [19] and in experiment [20] were > 100 µM (inactive) and 35.2 µM (inactive), respectively.
